Results taken from ChEMBL document CHEMBL5696443 (Clin Cancer Res, 2016).
The source made the active and inactive calls. No cut-off for these calls is given here.

How the values were obtained:
[1] = tested on: Protein cereblon/ALK tyrosine kinase receptor/Echinoderm microtubule-associated protein-like 4 (Homo sapiens), Q9UM73+Q9HC35+Q96SW2 [UNDEFINED MUTATION]; details: BaF3, time 72.0 hrs
[2] = target: Serine/threonine-protein kinase DCLK2 (Homo sapiens) (UniProt Q8N568); assay: Inhibition of human DCLK2 at 1 uM using KKLNRTLSFAEPG as substrate in presence of [gamma33P]-ATP by HotSpot assay relative to control
[3] = target: Serine/threonine-protein kinase WNK3 (Homo sapiens) (UniProt Q9BYP7); assay: Inhibition of human WNK3 at 1 uM using MBP as substrate in presence of [gamma33P]-ATP by HotSpot assay relative to control
[4] = tested on: NCI-H2228; assay: Antitumor activity against ALK positive human NCI-H2228 cells xenografted in SCID beige mouse assessed as inhibition of tumor growth administered orally once daily for 21 days; assay type: functional, cell-based; details: dose 10-50 mg/kg, route po, time 21.0 day
[5] = tested on: BaF3; assay: In vivo inhibition of ALK signaling in mouse implanted with mouse BaF3 cells expressing EML4-ALK L1196M mutant assessed as inhibition of ALK phosphorylation at 25 mg/kg, po administered as single dose and measured at 6 to 24 hrs by ELISA; assay type: functional, organism-based; details: time 6-24 hrs
[6] = target: Insulin-like growth factor 1 receptor (Homo sapiens, UniProt P08069); assay: Inhibition of human IGF1R using KKKSPGEYVNIEFG as substrate in presence of [gamma33P]-ATP by HotSpot assay
[7] = target: Tyrosine-protein kinase FRK (Homo sapiens, UniProt P42685); assay: Inhibition of human FRK using RLGRDKYKTLRQIRQ as substrate in presence of [gamma33P]-ATP by HotSpot assay
[8] = target: Serine/threonine-protein kinase WNK2 (Homo sapiens) (UniProt Q9Y3S1); assay: Inhibition of human WNK2 at 1 uM using MBP as substrate in presence of [gamma33P]-ATP by HotSpot assay relative to control
[9] = Average plasma concentration in CB-17/SCID mouse implanted with mouse BaF3 cells expressing EML4-ALK G1202R mutant at 50 mg/kg, po administered once daily for 7 days by LC-MS/MS analysis; assay type: ADME, organism-based; details: in vivo, 168 h, time 7 day
[10] = target: Misshapen-like kinase 1 (Homo sapiens) (UniProt Q8N4C8); assay: Inhibition of human MINK1 at 1 uM using MBP as substrate in presence of [gamma33P]-ATP by HotSpot assay relative to control
[11] = target: Muscle, skeletal receptor tyrosine-protein kinase (Homo sapiens) (UniProt O15146); assay: Inhibition of human MUSK at 1 uM using MBP as substrate in presence of [gamma33P]-ATP by HotSpot assay relative to control
[12] = target: Calcium/calmodulin-dependent protein kinase type 1 (Homo sapiens) (UniProt Q14012); assay: Inhibition of human CAMK1a at 1 uM using KKALRRQETVDAL as substrate in presence of [gamma33P]-ATP by HotSpot assay relative to control
[13] = target: Dual specificity tyrosine-phosphorylation-regulated kinase 3 (Homo sapiens) (UniProt O43781); assay: Inhibition of human DYRK3 at 1 uM using RRRFRPASPLRGPPK as substrate in presence of [gamma33P]-ATP by HotSpot assay relative to control
[14] = target: Vascular endothelial growth factor receptor 2 (Homo sapiens, UniProt P35968); assay: Inhibition of human VEGFR2 using poly (Glu, Tyr)4:1 as substrate in presence of [gamma33P]-ATP by HotSpot assay
[15] = target: Serine/threonine-protein kinase Chk1 (Homo sapiens, UniProt O14757); assay: Inhibition of human CHEK1 using KKKVSRSGLYRSPSMPENLNRPR as substrate in presence of [gamma33P]-ATP by HotSpot assay
[16] = target: Serine/threonine-protein kinase 3 (Homo sapiens) (UniProt Q13188); assay: Inhibition of human STK3 at 1 uM using MBP as substrate in presence of [gamma33P]-ATP by HotSpot assay relative to control
[17] = target: RAC-alpha serine/threonine-protein kinase (Homo sapiens) (UniProt P31749); assay: Inhibition of human AKT1 at 1 uM using KGSGSGRPRTSSFAEG as substrate in presence of [gamma33P]-ATP by HotSpot assay relative to control
[18] = target: MAP kinase-activated protein kinase 5 (Homo sapiens) (UniProt Q8IW41); assay: Inhibition of human MAPKAPK5 at 1 uM using KKLNRTLSVA as substrate in presence of [gamma33P]-ATP by HotSpot assay relative to control
[19] = tested on: EML4-ALK (Homo sapiens), Q9UM73+Q9HC35 [E1210K]; details: BaF3, time 3-5 weeks
[20] = organism: Homo sapiens; assay: Inhibition of human PKA at 1 uM using LCGRTGRRNSI as substrate in presence of [gamma33P]-ATP by HotSpot assay relative to control
[21] = target: Tyrosine-protein kinase ZAP-70 (Homo sapiens) (UniProt P43403); assay: Inhibition of human ZAP70 at 1 uM using MBP as substrate in presence of [gamma33P]-ATP by HotSpot assay relative to control
[22] = tested on: DEL; details: time 72 hrs
[23] = target: Ephrin type-B receptor 4 (Homo sapiens) (UniProt P54760); assay: Inhibition of human EPHB4 at 1 uM using poly (Glu, Tyr)4:1 as substrate in presence of [gamma33P]-ATP by HotSpot assay relative to control
[24] = target: Tyrosine-protein kinase SYK (Homo sapiens) (UniProt P43405); assay: Inhibition of human SYK at 1 uM using poly (Glu, Tyr)4:1 as substrate in presence of [gamma33P]-ATP by HotSpot assay relative to control
[25] = tested on: Platelet-derived growth factor receptor alpha (Homo sapiens), P16234 [T674I]; assay: Inhibition of human PDGFRalpha T674I mutant at 1 uM using poly (Glu, Tyr)4:1 as substrate in presence of [gamma33P]-ATP by HotSpot assay relative to control
[26] = target: Serine/threonine-protein kinase 4 (Homo sapiens, UniProt Q13043); assay: Inhibition of human STK4 using KKSRGDYMTMQIG as substrate in presence of [gamma33P]-ATP by HotSpot assay
[27] = tested on: EML4-ALK (Homo sapiens), Q9UM73+Q9HC35 [L1196M]; details: BaF3, dose 200.0 nmol/L, time 3-5 weeks
[28] = tested on: NCI-H23; details: time 72 hrs
[29] = tested on: KARPAS-299; assay: Antitumor activity against ALK positive human KARPAS-299 cells xenografted in SCID beige mouse assessed as inhibition of tumor growth administered orally once daily for 14 days; assay type: functional, cell-based; details: dose 10-50 mg/kg, route po, time 14.0 day

Chain of MAP kinase-activated protein kinase 5 (Homo sapiens) (Q8IW41 whole entry): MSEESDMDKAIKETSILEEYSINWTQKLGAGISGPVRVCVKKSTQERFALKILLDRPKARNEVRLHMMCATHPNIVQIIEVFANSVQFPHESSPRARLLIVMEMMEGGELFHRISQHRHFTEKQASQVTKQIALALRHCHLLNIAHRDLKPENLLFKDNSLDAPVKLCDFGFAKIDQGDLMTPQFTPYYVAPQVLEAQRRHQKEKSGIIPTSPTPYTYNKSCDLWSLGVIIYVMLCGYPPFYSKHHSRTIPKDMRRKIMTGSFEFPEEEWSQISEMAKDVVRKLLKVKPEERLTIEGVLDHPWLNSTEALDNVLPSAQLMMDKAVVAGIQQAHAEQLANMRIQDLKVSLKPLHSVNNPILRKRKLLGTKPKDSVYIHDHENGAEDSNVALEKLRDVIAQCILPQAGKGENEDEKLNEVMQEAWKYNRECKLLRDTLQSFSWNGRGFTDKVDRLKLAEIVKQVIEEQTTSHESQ
Chain of Serine/threonine-protein kinase WNK2 (Homo sapiens) (Q9Y3S1 whole entry): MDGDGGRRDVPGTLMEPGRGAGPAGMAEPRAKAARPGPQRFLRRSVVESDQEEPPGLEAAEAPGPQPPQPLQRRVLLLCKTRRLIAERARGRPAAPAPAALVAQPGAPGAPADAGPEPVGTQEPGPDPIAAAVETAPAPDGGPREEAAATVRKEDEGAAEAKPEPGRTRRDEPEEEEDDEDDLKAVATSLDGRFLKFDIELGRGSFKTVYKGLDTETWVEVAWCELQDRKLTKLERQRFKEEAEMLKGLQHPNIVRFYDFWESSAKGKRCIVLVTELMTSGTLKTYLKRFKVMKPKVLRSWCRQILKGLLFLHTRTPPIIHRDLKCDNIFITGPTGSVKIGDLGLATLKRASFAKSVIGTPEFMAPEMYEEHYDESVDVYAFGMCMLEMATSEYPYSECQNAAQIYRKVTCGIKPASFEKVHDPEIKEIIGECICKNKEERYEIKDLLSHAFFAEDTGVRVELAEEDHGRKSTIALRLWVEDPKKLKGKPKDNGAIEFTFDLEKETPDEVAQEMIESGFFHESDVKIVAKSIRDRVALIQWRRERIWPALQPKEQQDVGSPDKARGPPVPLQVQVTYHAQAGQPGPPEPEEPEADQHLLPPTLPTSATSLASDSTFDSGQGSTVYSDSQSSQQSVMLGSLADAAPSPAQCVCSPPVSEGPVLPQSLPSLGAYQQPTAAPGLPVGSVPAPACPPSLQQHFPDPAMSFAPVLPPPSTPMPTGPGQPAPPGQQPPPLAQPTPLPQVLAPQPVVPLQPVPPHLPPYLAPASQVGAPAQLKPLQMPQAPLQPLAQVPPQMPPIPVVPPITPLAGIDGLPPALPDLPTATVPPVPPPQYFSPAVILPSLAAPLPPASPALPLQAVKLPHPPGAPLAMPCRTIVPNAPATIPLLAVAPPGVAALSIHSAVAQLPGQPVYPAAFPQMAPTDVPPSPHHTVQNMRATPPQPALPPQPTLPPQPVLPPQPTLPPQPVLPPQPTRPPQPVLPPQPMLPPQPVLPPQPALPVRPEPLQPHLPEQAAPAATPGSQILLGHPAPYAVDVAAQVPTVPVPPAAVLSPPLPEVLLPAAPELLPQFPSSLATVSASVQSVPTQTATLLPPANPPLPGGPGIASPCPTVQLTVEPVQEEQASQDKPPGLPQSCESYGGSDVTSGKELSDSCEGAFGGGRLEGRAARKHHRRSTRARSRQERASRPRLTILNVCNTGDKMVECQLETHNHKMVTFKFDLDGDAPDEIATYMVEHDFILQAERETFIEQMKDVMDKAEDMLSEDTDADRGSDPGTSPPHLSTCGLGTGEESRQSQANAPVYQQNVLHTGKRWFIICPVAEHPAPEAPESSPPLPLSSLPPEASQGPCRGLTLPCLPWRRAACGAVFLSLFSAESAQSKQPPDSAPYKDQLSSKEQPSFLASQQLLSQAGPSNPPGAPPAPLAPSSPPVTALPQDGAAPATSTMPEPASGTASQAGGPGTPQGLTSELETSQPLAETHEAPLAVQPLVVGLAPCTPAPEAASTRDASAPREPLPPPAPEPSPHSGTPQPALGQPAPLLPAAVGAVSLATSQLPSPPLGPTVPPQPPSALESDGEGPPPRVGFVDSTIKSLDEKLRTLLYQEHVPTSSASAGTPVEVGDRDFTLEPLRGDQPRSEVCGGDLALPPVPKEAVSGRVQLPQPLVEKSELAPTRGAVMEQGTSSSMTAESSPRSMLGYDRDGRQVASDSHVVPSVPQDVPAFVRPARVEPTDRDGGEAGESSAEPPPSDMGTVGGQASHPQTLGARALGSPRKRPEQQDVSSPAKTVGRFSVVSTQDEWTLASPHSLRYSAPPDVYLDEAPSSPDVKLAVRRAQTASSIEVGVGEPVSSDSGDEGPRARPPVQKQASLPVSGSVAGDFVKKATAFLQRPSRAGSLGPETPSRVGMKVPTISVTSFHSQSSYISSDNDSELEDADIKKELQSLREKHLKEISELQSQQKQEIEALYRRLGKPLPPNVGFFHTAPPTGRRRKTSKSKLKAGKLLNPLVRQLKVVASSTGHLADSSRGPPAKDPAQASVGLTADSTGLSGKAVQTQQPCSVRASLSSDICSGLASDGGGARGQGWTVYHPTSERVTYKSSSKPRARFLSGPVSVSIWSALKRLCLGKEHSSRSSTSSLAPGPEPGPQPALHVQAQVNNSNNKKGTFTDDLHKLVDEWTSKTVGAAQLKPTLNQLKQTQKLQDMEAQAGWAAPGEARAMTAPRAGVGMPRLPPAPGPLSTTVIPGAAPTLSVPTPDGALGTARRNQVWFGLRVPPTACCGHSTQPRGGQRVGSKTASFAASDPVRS
Chain of Tyrosine-protein kinase FRK (P42685 whole entry): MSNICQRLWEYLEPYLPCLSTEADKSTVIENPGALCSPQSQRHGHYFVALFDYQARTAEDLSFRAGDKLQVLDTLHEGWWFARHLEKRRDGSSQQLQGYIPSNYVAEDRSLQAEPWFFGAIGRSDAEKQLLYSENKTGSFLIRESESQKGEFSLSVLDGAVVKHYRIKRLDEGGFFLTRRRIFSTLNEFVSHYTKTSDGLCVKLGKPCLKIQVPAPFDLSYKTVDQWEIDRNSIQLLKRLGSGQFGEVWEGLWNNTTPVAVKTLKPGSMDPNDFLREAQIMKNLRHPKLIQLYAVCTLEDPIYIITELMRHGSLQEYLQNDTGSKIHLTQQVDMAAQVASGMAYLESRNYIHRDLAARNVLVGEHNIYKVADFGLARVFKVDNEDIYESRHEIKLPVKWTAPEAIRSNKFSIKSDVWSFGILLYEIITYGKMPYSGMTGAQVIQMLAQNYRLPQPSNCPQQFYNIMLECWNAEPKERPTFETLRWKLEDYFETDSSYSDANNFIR
Chain of Muscle, skeletal receptor tyrosine-protein kinase (Homo sapiens) (O15146 whole entry): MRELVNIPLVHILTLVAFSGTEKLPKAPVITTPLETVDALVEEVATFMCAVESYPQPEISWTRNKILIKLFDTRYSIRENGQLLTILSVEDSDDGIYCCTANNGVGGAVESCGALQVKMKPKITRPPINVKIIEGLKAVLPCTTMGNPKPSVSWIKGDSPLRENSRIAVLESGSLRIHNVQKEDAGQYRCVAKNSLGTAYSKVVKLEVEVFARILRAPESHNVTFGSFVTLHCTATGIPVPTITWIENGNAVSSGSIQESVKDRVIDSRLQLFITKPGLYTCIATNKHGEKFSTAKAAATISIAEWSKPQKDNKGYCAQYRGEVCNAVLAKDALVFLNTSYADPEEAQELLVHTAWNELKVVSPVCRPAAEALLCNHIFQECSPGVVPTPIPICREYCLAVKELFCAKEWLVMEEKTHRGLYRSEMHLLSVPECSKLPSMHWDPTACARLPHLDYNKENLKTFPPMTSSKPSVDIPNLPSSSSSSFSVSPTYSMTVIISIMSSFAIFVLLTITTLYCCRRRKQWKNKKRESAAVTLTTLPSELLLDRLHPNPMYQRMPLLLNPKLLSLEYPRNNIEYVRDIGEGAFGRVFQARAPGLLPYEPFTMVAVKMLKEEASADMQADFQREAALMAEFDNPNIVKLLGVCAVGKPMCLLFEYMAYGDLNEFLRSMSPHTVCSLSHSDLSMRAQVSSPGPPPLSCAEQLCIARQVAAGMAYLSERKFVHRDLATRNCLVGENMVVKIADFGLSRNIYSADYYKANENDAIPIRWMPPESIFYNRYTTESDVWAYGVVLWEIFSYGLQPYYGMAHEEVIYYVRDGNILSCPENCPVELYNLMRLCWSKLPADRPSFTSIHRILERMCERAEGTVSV
Chain of Serine/threonine-protein kinase 3 (Homo sapiens) (Q13188 whole entry): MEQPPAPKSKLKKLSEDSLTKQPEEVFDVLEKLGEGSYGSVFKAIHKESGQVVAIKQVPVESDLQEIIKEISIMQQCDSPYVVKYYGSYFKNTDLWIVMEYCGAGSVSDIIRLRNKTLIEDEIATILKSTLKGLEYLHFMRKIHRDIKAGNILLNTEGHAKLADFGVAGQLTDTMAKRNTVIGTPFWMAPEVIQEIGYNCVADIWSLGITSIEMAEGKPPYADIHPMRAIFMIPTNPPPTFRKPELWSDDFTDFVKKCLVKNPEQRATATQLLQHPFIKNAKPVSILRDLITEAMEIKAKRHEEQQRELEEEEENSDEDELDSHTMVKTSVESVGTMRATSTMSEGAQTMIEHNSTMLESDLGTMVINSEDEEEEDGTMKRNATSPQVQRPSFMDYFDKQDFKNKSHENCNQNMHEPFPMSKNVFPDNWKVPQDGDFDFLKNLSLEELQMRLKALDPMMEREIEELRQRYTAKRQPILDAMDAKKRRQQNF
Chain of Calcium/calmodulin-dependent protein kinase type 1 (Homo sapiens) (Q14012 whole entry, looked up): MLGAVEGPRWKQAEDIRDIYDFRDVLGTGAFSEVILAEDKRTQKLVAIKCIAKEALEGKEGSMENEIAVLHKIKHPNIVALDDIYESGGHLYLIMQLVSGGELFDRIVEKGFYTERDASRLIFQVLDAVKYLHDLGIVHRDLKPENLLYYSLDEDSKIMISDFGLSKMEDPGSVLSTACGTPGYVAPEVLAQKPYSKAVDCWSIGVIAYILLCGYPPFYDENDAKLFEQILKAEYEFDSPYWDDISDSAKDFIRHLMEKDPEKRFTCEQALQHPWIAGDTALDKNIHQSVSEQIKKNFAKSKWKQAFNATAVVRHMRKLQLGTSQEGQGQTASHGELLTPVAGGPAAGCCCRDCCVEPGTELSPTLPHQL

COc1cc(N2CCC(N3CCN(C)CC3)CC2)ccc1Nc1ncc(Cl)c(Nc2ccccc2P(C)(C)=O)n1 [BRIGATINIB] gave an IC90 [1] of 38 nM, an inhibition [2] of under 90% and an inhibition [3] of under 90%. The Activity [4] was “Dose-Dependent Effect”, the inhibition [5] was “Active” and the IC50 [6] was 73 nM. The IC50 [7] was 52 nM, the inhibition [8] was under 90% and the Cave [9] was 5.151 µM. The inhibition [10] was under 90%, the inhibition [11] was under 90% and the inhibition [12] was under 90%. It also gave an inhibition [13] of under 90%, an IC50 [14] of 816 nM and an IC50 [15] of 30 nM. For the same compound, the inhibition [16] was under 90%, the inhibition [17] was under 90% and the inhibition [18] was under 90%. For the same compound, the IC90 [19] was 366 nM, the inhibition [20] was under 90% and the inhibition [21] was under 90%. For the same compound, the GI50 [22] was 31 nM, the inhibition [23] was under 90% and the inhibition [24] was under 90%. The inhibition [25] was under 90%, the IC50 [26] was over 1000 nM and the inhibition [27] was “inactive”. For the same compound, the GI50 [28] was 1340 nM and the Activity [29] was “Dose-Dependent Effect”.
